One block for each molecule: values may come before it.
Assays:
[1] = molecular target: FaRRP1-His/MBP recombinant fusion protein (strawberry ripening-regulated protein 1) (Fragaria x ananassa (strawberry)); assay: ITC; 200 uM FaPYL2 dropped into 20 uM FaRRP1; ITC200 (MicroCal), 25 C; ITC buffer 20 mM Na2HPO4, 20 mM NaH2PO4, 300 mM NaCl, 20 mM MgCl2, pH 7.4; 20 injections
[2] = molecular target: FaABAR-His recombinant fusion protein (magnesium chelatase H subunit) (Fragaria x ananassa (strawberry)); assay: ITC; 200 uM FaRRP1 dropped into 20 uM FaABAR; ITC200 (MicroCal), 25 C; ITC buffer 20 mM Na2HPO4, 20 mM NaH2PO4, 300 mM NaCl, 20 mM MgCl2, pH 7.4; 20 injections
[3] = tested on: FaRRP1-mediated endocytosis in root cells; assay: Endocytosis experiment under ABA treatment (FM4-64 staining of root cells); assay type: cell-based, Arabidopsis; settings: 0.1 μM ABA 48 h, 10-days-old seedlings, 5 μM FM4-64 10 min; FaRRP1-OE line compared with WT
Experimental: The 10-days-old FaRRP1 OE and WT Arabidopsis seedlings growing under the normal condition were collected and soaked into the equilibrium solution [1/2 MS salt (pH=5.70), 1% sugar (w/v)] for 30 min. Then, the seedlings were treated with 0.1 μM ABA. After 48 h later, these seedlings were stained with 5 μM FM4-64 (Invitrogen) dye for 10 min, washed with equilibrium solution for 3 times, and root cells were observed under a confocal laser scanning microscope (Zeiss LSM 710 META). The experiment was repeated three times.

[4] = molecular target: FaRRP1–FaPYL2 protein complexes; assay: ITC binding of ABA to FaRRP1–FaPYL2 complex; design: species or system Fragaria × ananassa; settings: 0.4 mM S-(+)-ABA titrated into 20 μM complex, pH 7.4, 25 °C, endothermic
Experimental: (§1) Whether FaRRP1 affects the binding activity of FaPYL2 and FaABAR to ABA is unclear. For this, FaRRP1-His/MBP, FaPYL2-His, and FaABAR-His were purified and dialyzed into the same buffer (ITC Buffer) (20 mM Na2HPO4, 20 mM NaH2PO4, 300 mM NaCl, 20 mM MgCl2 pH 7.4). Then, the molar concentrations of FaRRP1-FaPYL2 and FaRRP1-FaABAR complexes were mixed into the same ratio and placed at 4 °C for 30 min. Finally, 1-fold protein peptide and 20-fold S- (+)-ABA were used for ITC assays (Fig. 5, D and H).
(§2) The purified protein was concentrated using an Amicon Ultra-4 centrifugal 3-kDa filter (Millipore) at 3000g for 20 min in a swing bucket rotor (Sigma). The protein was then desalted for buffer exchange using a HiTrap desalting column (GE Healthcare). The HiTrap desalting column was filled with ITC buffer (20 mM Na2HPO4, 20 mM NaH2PO4, 300 mM NaCl, 20 mM MgCl2, pH 7.4) to remove ethanol completely and equilibrate the column. The final concentration of the FaRRP1-His/MBP, FaPYL2-His, and FaABAR-His fusion protein was adjusted to 20 μM. The binding reaction between fusion protein to ABA was detected by ITC. To ensure the univariate of the experiment, an ITC buffer was used to prepare an ABA solution with 20 times protein concentration to ensure the matching of buffer environment between the two. The ITC analysis used 20-μM fusion protein and 400-μM ABA in an ITC200 calorimeter (MicroCal). […]

[5] = molecular target: FaPYL2-His fusion protein; assay: ITC binding of ABA to FaPYL2; design: species or system Fragaria × ananassa; settings: 0.4 mM S-(+)-ABA titrated into 20 μM protein, pH 7.4, 25 °C, endothermic, saturation curve
Text: (§3) The expression and purification of the recombinant proteins FaRRP1, FaPYL2, and FaABAR were done by a prokaryotic (E. coli) expression system. The cDNA encoding the FaRRP1, FaPYL2, and FaABAR was synthesized using the aforementioned method by PCR amplification using the primers listed in Table S1. The recombinant plasmids of pET-28a-FaPYL2-His, pMAL-C5X-FaRRP1-His/MBP, pGEX4T-1-FaRRP1-GST, pET-28a-FaABAR-His were constructed. After positive recombinants were identified by double-digesting and sequencing, the E. coli strain BL21 (DE3) cells with the recombinant plasmid were grown in 500 ml LB medium containing different antibiotics at 37 °C. On A600 at 0.6 to 0.7, 0.5 mM IPTG was added to inducibly express the fusion proteins overnight at 16 °C for 12 h. The cultures were harvested and suspended with 20 ml binding buffer (20 mM Na2HPO4, 20 mM NaH2PO4, 300 mM NaCl, 20 mM MgCl2, 10 mM imidazole, pH 7.4), then lysed by sonication in a Misonix Sonifier at 4 °C; finally, the supernatants were loaded onto BeaverBeads IDA- Ni^2+ (Beaver) columns and mixed gently by shaking at 4 °C for 60 min. […]
(§4) The purified protein was concentrated using an Amicon Ultra-4 centrifugal 3-kDa filter (Millipore) at 3000g for 20 min in a swing bucket rotor (Sigma). […] The binding reaction between fusion protein to ABA was detected by ITC. […]

[6] = molecular target: T1, FaABAR-His fusion protein (Fragaria × ananassa, UniProt C6KF71); assay: ITC binding of ABA to FaABAR
T1 sequence (C6KF71 1-1381): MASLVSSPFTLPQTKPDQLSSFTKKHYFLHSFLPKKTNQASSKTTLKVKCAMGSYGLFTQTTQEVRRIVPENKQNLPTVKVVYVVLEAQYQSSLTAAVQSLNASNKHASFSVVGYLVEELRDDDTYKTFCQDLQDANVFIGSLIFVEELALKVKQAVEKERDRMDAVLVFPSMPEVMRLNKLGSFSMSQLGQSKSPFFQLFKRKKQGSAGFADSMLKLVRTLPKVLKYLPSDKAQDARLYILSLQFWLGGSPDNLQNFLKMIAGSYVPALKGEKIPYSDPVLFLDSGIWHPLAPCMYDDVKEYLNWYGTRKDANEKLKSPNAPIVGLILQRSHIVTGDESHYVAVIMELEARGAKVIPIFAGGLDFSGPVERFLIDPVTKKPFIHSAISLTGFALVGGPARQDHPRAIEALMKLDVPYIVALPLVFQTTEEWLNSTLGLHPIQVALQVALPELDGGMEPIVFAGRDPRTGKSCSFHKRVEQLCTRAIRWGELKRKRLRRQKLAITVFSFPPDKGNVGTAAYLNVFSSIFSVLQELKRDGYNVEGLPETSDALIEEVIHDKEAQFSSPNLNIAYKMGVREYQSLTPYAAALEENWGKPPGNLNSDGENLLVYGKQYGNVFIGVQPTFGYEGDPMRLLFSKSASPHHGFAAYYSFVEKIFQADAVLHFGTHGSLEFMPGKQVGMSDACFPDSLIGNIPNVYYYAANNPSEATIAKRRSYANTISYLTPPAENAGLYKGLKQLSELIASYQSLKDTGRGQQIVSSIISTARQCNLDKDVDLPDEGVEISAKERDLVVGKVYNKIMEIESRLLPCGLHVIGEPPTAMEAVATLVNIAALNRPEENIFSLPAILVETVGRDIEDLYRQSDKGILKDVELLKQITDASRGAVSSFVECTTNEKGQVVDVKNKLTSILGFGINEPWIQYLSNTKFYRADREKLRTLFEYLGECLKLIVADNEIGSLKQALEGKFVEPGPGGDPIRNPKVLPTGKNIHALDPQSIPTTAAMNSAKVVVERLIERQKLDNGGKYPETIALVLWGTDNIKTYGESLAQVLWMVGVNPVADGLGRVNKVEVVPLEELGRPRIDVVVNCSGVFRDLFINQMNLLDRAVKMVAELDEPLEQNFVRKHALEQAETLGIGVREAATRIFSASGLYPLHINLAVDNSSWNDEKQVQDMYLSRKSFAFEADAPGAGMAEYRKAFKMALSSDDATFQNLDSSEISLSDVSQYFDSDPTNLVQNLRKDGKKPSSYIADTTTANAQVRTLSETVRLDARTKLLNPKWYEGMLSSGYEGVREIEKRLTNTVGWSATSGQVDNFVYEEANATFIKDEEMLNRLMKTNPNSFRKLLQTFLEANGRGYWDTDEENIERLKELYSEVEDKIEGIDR
Text: as §3, §4

[7] = molecular target: FaRRP1-His/MBP fusion protein (Fragaria × ananassa, UniProt K9LRD7); assay: ITC binding of ABA to FaRRP1
Text: as §3, §4

[8] = tested on: clathrin-mediated vesicle transport genes; assay: RT-qPCR of clathrin-mediated vesicle transport genes in ABA-incubated fruit discs; assay type: cell-based, Fragaria × ananassa; settings: 100 μM ABA, white-stage fruit discs, vs control
Experimental: In vitro treatments were performed on fruits in the white stage using 100 μM ABA, and ABA-free buffer incubation was used as the control. The incubation was done as described by Song et al. ([77]). After a 2-h incubation followed by washing with double-distilled water, the discs were frozen in liquid nitrogen and kept at −80 °C until use. Samples are collected once at 0 h, 1 h, and 2 h. The experiment was performed with three replicates.
Total RNA was isolated from the fruit using the aforementioned method. The first-strand cDNA was used as the template for RT-qPCR, which was performed using the Trans Start Top UreenqPCR Super Mix Kit (TransGen Biotech) on the Light Cycler 96 real-time PCR system, with cDNA under different treatments as the template and strawberry Actin as the internal reference gene. The reaction procedures were as follows: predenaturation at 94 °C for 30 s, followed by 40 cycles of denaturation at 94 °C for 5 s, annealing at 60 °C for 15 s, and extension at 72 °C for 10 s. The experiment was duplicated three times independently. The Actin of the standard sample and the cDNA of the sample to be tested were repeated three times. Relative expression values were calculated by the 2^−ΔΔCt method, and SPSS22.0 software (https://www.spss.com) was used to analyze the experimental data.

[9] = molecular target: FaRRP1–FaABAR protein complexes (Fragaria x ananassa, UniProt C6KF71+K9LRD7); assay: ITC binding of ABA to FaRRP1–FaABAR complex; settings: 0.4 mM S-(+)-ABA titrated into 20 μM complex, pH 7.4, 25 °C, exothermic
Experimental: as §1, §2

[10] = 2 h, decreased in contrast to 1 h treatment

Chain of FaRRP1-His/MBP fusion protein (K9LRD7 1-566): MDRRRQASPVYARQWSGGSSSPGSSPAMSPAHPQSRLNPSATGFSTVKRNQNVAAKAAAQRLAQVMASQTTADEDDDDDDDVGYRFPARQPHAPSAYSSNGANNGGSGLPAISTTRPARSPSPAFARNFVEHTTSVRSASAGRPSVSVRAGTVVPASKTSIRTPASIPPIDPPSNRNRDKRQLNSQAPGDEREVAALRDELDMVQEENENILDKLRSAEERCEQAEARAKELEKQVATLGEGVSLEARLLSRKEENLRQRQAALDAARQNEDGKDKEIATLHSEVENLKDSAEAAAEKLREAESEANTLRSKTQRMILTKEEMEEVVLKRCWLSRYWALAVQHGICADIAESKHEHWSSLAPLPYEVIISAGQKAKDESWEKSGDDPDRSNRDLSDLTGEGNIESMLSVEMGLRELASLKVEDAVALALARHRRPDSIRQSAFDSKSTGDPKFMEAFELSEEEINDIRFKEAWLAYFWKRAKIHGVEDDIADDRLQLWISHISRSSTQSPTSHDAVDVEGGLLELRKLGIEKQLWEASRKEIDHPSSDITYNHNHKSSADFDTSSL
Chain of FaRRP1–FaABAR protein complexes (K9LRD7 1-566, one chain of several): as the sequence (K9LRD7 1-566) above
Chain of FaRRP1-His/MBP recombinant fusion protein (strawberry ripening-regulated protein 1) (Fragaria x ananassa (strawberry)) (K9LRD7 entry or part of it): as the sequence (K9LRD7 1-566) above

Kd [1]: 75.6 µM
Molecule: FaPYL2-His recombinant fusion protein (natural protein)

Kd [2]: 168 µM
Molecule: FaRRP1-His/MBP recombinant fusion protein (strawberry ripening-regulated protein 1) (natural protein)

Molecule: CC1=CC(=O)CC(C)(C)[C@@]1(O)/C=C/C(C)=C\C(=O)O [ABA, Abscisic acid]
degree of PM internalization (FM4-64–labeled fluorescent signal) [3]: promote the degree of PM internalization
Kd [4]: 30.6 µM
Kd [5]: 102 µM
N (stoichiometry) ABA-FaABAR ([6]; ITC fit, 0.4 mM ABA into 20 μM FaABAR): 8.60 Sites
Kd ([6]; ITC, 0.4 mM S-(+)-ABA titrated into 20 μM protein, pH 7.4, 25 °C, endothermic, could not reach saturation curve): 258 µM
N (stoichiometry) ABA-FaRRP1 ([7]; ITC fit, 0.4 mM ABA into 20 μM FaRRP1): 0.41 Sites
Kd ([7]; ITC, 0.4 mM S-(+)-ABA titrated into 20 μM protein, pH 7.4, 25 °C, exothermic, saturation curve): 140 µM
expression of FaAP1 ([8]; 1 h): significantly increased
expression of FaAP2 ([8]; 1 h): significantly increased
expression of FaCHC1 ([8]; 1 h): not changed
expression of FaCHC2 ([8]; 1 h): significantly increased
expression of FaCLC1 ([8]; 1 h): significantly increased
expression of FaCLC2 ([8]; 1 h): decreased considerably
expression of FaSCD1 ([8]; 1 h): significantly increased
expression of FaSCD2 ([8]; 1 h): significantly increased
expression of FaAP1 ([8]; 2 h): significantly decreased
expression of FaCHC1 ([8]; 2 h): quite upregulated
expression of FaCHC2 ([8]; 2 h): significantly decreased
expression of FaCLC2 ([8]; 2 h): quite upregulated
expression of FaSCD1 ([8]; 2 h): significantly decreased
expression of FaAP2 [8, 10]: significantly increased
expression of FaSCD2 [8, 10]: significantly increased
Kd [9]: 87.7 µM

Reference: article PMC10582773, “A clathrin-related protein FaRRP1/SCD2 integrates ABA trafficking and signaling to regulate strawberry fruit ripening” (The Journal of Biological Chemistry, 2023)
